The values below come from patent US20240239752A1, “BICYCLIC HETEROAROMATIC INHIBITORS OF KLK5” (BioCryst Pharmaceuticals, Inc., priority 2021, published 2024).

As usually defined, the IC50 is the concentration that gives 50% inhibition.

Some results are limits rather than exact numbers.

This assay deals with T1, recombinant human KLK5 (Homo sapiens, UniProt Q9Y337).
T1 construct: purchased Novoprotein or R&D Systems C415 or 1108-SE
T1 sequence (Q9Y337 23-293): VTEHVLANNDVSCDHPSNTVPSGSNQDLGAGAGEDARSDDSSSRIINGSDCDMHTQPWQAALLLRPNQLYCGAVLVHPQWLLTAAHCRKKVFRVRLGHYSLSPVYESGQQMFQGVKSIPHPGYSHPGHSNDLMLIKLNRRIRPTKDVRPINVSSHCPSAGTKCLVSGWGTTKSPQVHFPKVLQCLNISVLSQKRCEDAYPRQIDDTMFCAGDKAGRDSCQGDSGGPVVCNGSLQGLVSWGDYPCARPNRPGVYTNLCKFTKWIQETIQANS
Briefly: Kallikrein (KLK) 5 enzymatic assay (Boc-VPR-AMC fluorogenic substrate). It counts as biochemical. The conditions noted are these: recombinant human KLK5 0.1 μg/well, Boc-VPR-AMC 100 μM, pH 7.5, room temperature, 1% DMSO; tested a minimum of three times. In short, it runs like this: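 Recombinant human KLK5 (0.1 μg/well) was preincubated with compound at room temperature in 0.1 M NaH2PO4, pH 7.5, 1% DMSO, then started with 100 μM Boc-VPR-AMC. The rate was followed at 380/460 nm, and IC50 came from percent inhibition relative to enzyme alone, with at least three runs.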
Take `N#Cc1cc(-c2cccc3c(N)nccc23)cc2c(COc3ccccc3CC(=O)O)nn(C3CCCCO3)c12` (stereo not shown) [Compound 108c, 2-(2-((5-(1-aminoisoquinolin-5-yl)-7-cyano-1-(tetrahydro-2H-pyran-2-yl)-1H-indazol-3-yl)methoxy)phenyl)acetic acid]: the IC50 was below 1000 nM.

Regarding `Nc1nccc2ccc(-c3ccc4nn(C5CCOC5)c(COc5ccccc5CC(=O)O)c4c3)cc12` (stereo not shown) [Compound 109b, 2-(2-((5-(1-aminoisoquinolin-7-yl)-2-(tetrahydrofuran-3-yl)-2H-indazol-3-yl)methoxy)phenyl)acetic acid], the IC50 fell in the range of 1000 to 10000 nM.

Consider `CCC(CC)n1nc(COc2ccccc2CC(=O)O)c2cc(-c3ccc4ccnc(N)c4c3)ccc21` [Compound 110e, 2-(2-((5-(1-aminoisoquinolin-7-yl)-1-(pentan-3-yl)-1H-indazol-3-yl)methoxy)phenyl)acetic acid], for which the IC50 was below 1000 nM.

Turning to `COCCn1nc(COc2ccccc2CC(=O)O)c2cc(-c3ccc4ccnc(N)c4c3)ccc21` [Compound 111e, 2-(2-((5-(1-aminoisoquinolin-7-yl)-1-(2-methoxyethyl)-1H-indazol-3-yl)methoxy)phenyl)acetic acid], the IC50 is below 1000 nM.

On to `Nc1nccc2ccc(-c3ccc4c(c3)c(COc3ccccc3CC(=O)O)nn4C3CC4(CCC4)C3)cc12` [Compound 112e, 2-(2-((5-(1-aminoisoquinolin-7-yl)-1-(spiro[3.3]heptan-2-yl)-1H-indazol-3-yl)methoxy)phenyl)acetic acid], for which the IC50 was below 1000 nM.

In the case of `Nc1nccc2ccc(-c3ccc4nn([C@H]5CCN(CCO)C5)c(COc5ccccc5CC(=O)O)c4c3)cc12` [Compound 113h, (S)-2-(2-((5-(1-aminoisoquinolin-7-yl)-2-(1-(2-hydroxyethyl)pyrrolidin-3-yl)-2H-indazol-3-yl)methoxy)phenyl)acetic acid], the IC50 is 1000 to 10000 nM.

Regarding `Nc1nccc2c(-c3ccc4nn([C@H]5CCN(CC(=O)O)C5)c(COc5ccccc5CC(=O)O)c4c3)cccc12` [Compound 114d, (S)-2-(2-((5-(1-aminoisoquinolin-5-yl)-2-(1-(carboxymethyl)pyrrolidin-3-yl)-2H-indazol-3-yl)methoxy)phenyl)acetic acid], the IC50 is below 1000 nM.

Consider `Nc1nccc2c(-c3ccc4nn([C@H]5CCN(CCO)C5)c(COc5ccccc5CC(=O)O)c4c3)cccc12` [Compound 115b, (S)-2-(2-((5-(1-aminoisoquinolin-5-yl)-2-(1-(2-hydroxyethyl)pyrrolidin-3-yl)-2H-indazol-3-yl)methoxy)phenyl)acetic acid], for which the IC50 lay in the range of 1000 to 10000 nM.

For the compound `Nc1nccc2ccc(-c3ccc4nn([C@H]5CCN(CC(=O)O)C5)c(COc5ccccc5CC(=O)O)c4c3)cc12` [Compound 116b, (S)-2-(2-((5-(1-aminoisoquinolin-7-yl)-2-(1-(carboxymethyl)pyrrolidin-3-yl)-2H-indazol-3-yl)methoxy)phenyl)acetic acid], the IC50 lay within 1000 to 10000 nM.

On to `COCCN1CC[C@H](n2nc3ccc(-c4cccc5c(N)nccc45)cc3c2COc2ccccc2CC(=O)O)C1` [Compound 117c, (S)-2-(2-((5-(1-aminoisoquinolin-5-yl)-2-(1-(2-methoxyethyl)pyrrolidin-3-yl)-2H-indazol-3-yl)methoxy)phenyl)acetic acid], for which the IC50 was in the range of 1000 to 10000 nM.

For `COCCN1CC[C@H](n2nc3ccc(-c4ccc5ccnc(N)c5c4)cc3c2COc2ccccc2CC(=O)O)C1` [Compound 118b, (S)-2-(2-((5-(1-aminoisoquinolin-7-yl)-2-(1-(2-methoxyethyl)pyrrolidin-3-yl)-2H-indazol-3-yl)methoxy)phenyl)acetic acid], the IC50 was 1000 to 10000 nM.

In the case of `Nc1nccc2ccc(-c3ccc4nn(C5CN(CCO)C5)c(COc5ccccc5CC(=O)O)c4c3)cc12` [Compound 119h, 2-(2-((5-(1-aminoisoquinolin-7-yl)-2-(1-(2-hydroxyethyl)azetidin-3-yl)-2H-indazol-3-yl)methoxy)phenyl)acetic acid], the IC50 fell in the range of 1000 to 10000 nM.

Consider `COCCN1CC(n2nc3ccc(-c4cccc5c(N)nccc45)cc3c2COc2ccccc2CC(=O)O)C1` [Compound 120c, 2-(2-((5-(1-aminoisoquinolin-5-yl)-2-(1-(2-methoxyethyl)azetidin-3-yl)-2H-indazol-3-yl)methoxy)phenyl)acetic acid], for which the IC50 is below 1000 nM.

With `CC(C)CCN1CC(n2nc3ccc(-c4cccc5c(N)nccc45)cc3c2COc2ccccc2CC(=O)O)C1` [Compound 121c, 2-(2-((5-(1-aminoisoquinolin-5-yl)-2-(1-isopentylazetidin-3-yl)-2H-indazol-3-yl)methoxy)phenyl)acetic acid], the IC50 was below 1000 nM.

For the compound `COCCN1CC(n2nc3ccc(-c4ccc5ccnc(N)c5c4)cc3c2COc2ccccc2CC(=O)O)C1` [Compound 122b, 2-(2-((5-(1-aminoisoquinolin-7-yl)-2-(1-(2-methoxyethyl)azetidin-3-yl)-2H-indazol-3-yl)methoxy)phenyl)acetic acid], the IC50 is 1000 to 10000 nM.

With `Nc1nccc2c(-c3ccc4nn(C5CN(CCO)C5)c(COc5ccccc5CC(=O)O)c4c3)cccc12` [Compound 123b, 2-(2-((5-(1-aminoisoquinolin-5-yl)-2-(1-(2-hydroxyethyl)azetidin-3-yl)-2H-indazol-3-yl)methoxy)phenyl)acetic acid], the IC50 is 1000 to 10000 nM.

For `CC(C)CCN1CC(n2nc3ccc(-c4ccc5ccnc(N)c5c4)cc3c2COc2ccccc2CC(=O)O)C1` [Compound 124b, 2-(2-((5-(1-aminoisoquinolin-7-yl)-2-(1-isopentylazetidin-3-yl)-2H-indazol-3-yl)methoxy)phenyl)acetic acid], the half-maximal inhibitory concentration (IC50) lay within 1000 to 10000 nM.

For the compound `CC(C)(C)OC(=O)N1CC(n2nc3ccc(-c4cccc5c(N)nccc45)cc3c2COc2ccccc2CC(=O)O)C1` [Compound 125b, 2-(2-((5-(1-aminoisoquinolin-5-yl)-2-(1-(tert-butoxycarbonyl)azetidin-3-yl)-2H-indazol-3-yl)methoxy)phenyl)acetic acid], the IC50 was below 1000 nM.

Turning to `CCOC(=O)N1CC(n2nc3ccc(-c4cccc5c(N)nccc45)cc3c2COc2ccccc2CC(=O)O)C1` [Compound 126c, 2-(2-((5-(1-aminoisoquinolin-5-yl)-2-(1-(ethoxycarbonyl)azetidin-3-yl)-2H-indazol-3-yl)methoxy)phenyl)acetic acid], the IC50 was 1000 to 10000 nM.

With `CCOC(=O)N1CC(n2nc3ccc(-c4ccc5ccnc(N)c5c4)cc3c2COc2ccccc2CC(=O)O)C1` [Compound 127b, 2-(2-((5-(1-aminoisoquinolin-7-yl)-2-(1-(ethoxycarbonyl)azetidin-3-yl)-2H-indazol-3-yl)methoxy)phenyl)acetic acid], the IC50 fell in the range of 1000 to 10000 nM.

For `CCC(=O)N1CC(n2nc3ccc(-c4ccc5ccnc(N)c5c4)cc3c2COc2ccccc2CC(=O)O)C1` [Compound 128c, 2-(2-((5-(1-aminoisoquinolin-7-yl)-2-(1-propionylazetidin-3-yl)-2H-indazol-3-yl)methoxy)phenyl)acetic acid], the IC50 fell in the range of 1000 to 10000 nM.

Regarding `CCC(=O)N1CC(n2nc3ccc(-c4cccc5c(N)nccc45)cc3c2COc2ccccc2CC(=O)O)C1` [Compound 129b, 2-(2-((5-(1-aminoisoquinolin-5-yl)-2-(1-propionylazetidin-3-yl)-2H-indazol-3-yl)methoxy)phenyl)acetic acid], the IC50 fell in the range of 1000 to 10000 nM.

For `CCS(=O)(=O)N1CC(n2nc3ccc(-c4cccc5c(N)nccc45)cc3c2COc2ccccc2CC(=O)O)C1` [Compound 130c, 2-(2-((5-(1-aminoisoquinolin-5-yl)-2-(1-(ethylsulfonyl)azetidin-3-yl)-2H-indazol-3-yl)methoxy)phenyl)acetic acid], the IC50 was below 1000 nM.

For `CC(C)CCN1CCC(n2nc3ccc(-c4ccc5ccnc(N)c5c4)cc3c2COc2ccccc2CC(=O)O)CC1` [Compound 131h, 2-(2-((5-(1-aminoisoquinolin-7-yl)-2-(1-isopentylpiperidin-4-yl)-2H-indazol-3-yl)methoxy)phenyl)acetic acid], the IC50 is below 1000 nM.

`CC(C)CCN1CCC(n2nc3ccc(-c4cccc5c(N)nccc45)cc3c2COc2ccccc2CC(=O)O)CC1` [Compound 132b, 2-(2-((5-(1-aminoisoquinolin-5-yl)-2-(1-isopentylpiperidin-4-yl)-2H-indazol-3-yl)methoxy)phenyl)acetic acid]: the IC50 is below 1000 nM.

In the case of `CCS(=O)(=O)N1CC(n2nc3ccc(-c4ccc5ccnc(N)c5c4)cc3c2COc2ccccc2CC(=O)O)C1` [Compound 133b, 2-(2-((5-(1-aminoisoquinolin-7-yl)-2-(1-(ethylsulfonyl)azetidin-3-yl)-2H-indazol-3-yl)methoxy)phenyl)acetic acid], the IC50 is above 10000 nM.

For `COCCN1CCC(n2nc3ccc(-c4cccc5c(N)nccc45)cc3c2COc2ccccc2CC(=O)O)CC1` [Compound 134c, 2-(2-((5-(1-aminoisoquinolin-5-yl)-2-(1-(2-methoxyethyl)piperidin-4-yl)-2H-indazol-3-yl)methoxy)phenyl)acetic acid], the IC50 is below 1000 nM.

As to `CC(C)(C)OC(=O)NC1CC(n2nc3ccc(-c4cccc5c(N)nccc45)cc3c2COc2ccccc2CC(=O)O)C1` (stereo not shown) [Compound 135f, 2-(2-((5-(1-aminoisoquinolin-5-yl)-2-(3-(tert-butoxycarbonylamino)cyclobutyl)-2H-indazol-3-yl)methoxy)phenyl)acetic acid], the IC50 is below 1000 nM.
